The record followed here is US7238377B2, “Use of an oil of the gourd family for inhibiting 5 alpha-reductase activity” (Laboratoires Expanscience, priority 2001, dated 2007).

“And” between values parts separate entries of the source, which are not always exact repeats. Equal entries are not always repeated. Marks after values point to notes of the source that are not given here.

The test system of the assay is 5α-reductase. Kind of assay: In vitro evaluation of 5α-reductase activity: conversion of testosterone to 5α-dihydrotestosterone in normal human dermal fibroblast cultures. It counts as cell-based. The note with it: finasteride 30 ng/ml. An excerpt:
In vitro evaluation of the 5α-reductase activity of the balsam pear oil on the conversion of testosterone to 5α-dihydrotestosterone in normal human dermal fibroblast cultures
It is proposed to evaluate the effect of the solid oil (butter) extracted from seeds of balsam pear (Momordica charantia), extracted with solvent (hexane), on 5α-reductase activity. An in vitro model of normal human dermal fibroblast cultures was selected.
The balsam pear oil was provided by the Laboratoires Pharmascience and was stored at +4° C. until the time it was used. The effects of the test product were compared with those obtained in the presence of finasteride, used as reference product (finasteride, principle active agent of the tablets CHIBRO-PROSCAR: MERCK SHARP & DOHME CHIBRET).
The radioactive testosterone (labeled with tritium at positions 1, 2, 6 and 7, specific activity 95 Ci/mmol) was provided by AMERSHAM, the nonradiolabeled testosterone was provided by SIGMA.
The fibroblast culture medium (FCM) consisted of MEM/M199 (3:1, v/v) supplemented with penicillin (50 IU/ml), streptomycin ([…]), sodium bicarbonate (0.2%, w/v) and FCS (10%, v/v).
The test system consisted of normal human dermal fibroblasts cultured in monolayer. The fibroblasts were isolated from a residue of an abdominoplasty carried out on a person (subject No. i0006). The cells were used at the third passage; they were cultured, until the monolayers reached confluency, in the FCM medium at 37° C. in a humid atmosphere containing 5% CO2.
The fibroblast incubation medium (FIM) consisted of FCM supplemented with tritiated testosterone (1.6×10^−7 M, i.e. 6.32 μCi/ml) and nonradiolabeled testosterone (3.84×10^−6 M).
The finasteride was extracted from the tablets by grinding, stirring in DMSO, centrifugation, and then collection of the supernatant (theoretical concentration of this solution: 1 mg/ml of finasteride), which was tested at 30 ng/ml. […]
The migration solvent was a mixture of dichloromethane and ether (7:3, v/v). At the end of migration, the silica plates were read using a BERTHOLD radioactivity scanner.
Comparison of the Rf (relative retention factor) values determined for the standards with those obtained for the various radioactive metabolites made it possible to identify these metabolites.
The metabolization of the testosterone to 5α-dihydro-testosterone under the various experimental conditions was calculated; the results (areas of the 5α-dihydro-testosterone peaks counted by the BERTHOLD scanner) are expressed in pmol of 5α-DHT formed per […]. They have also been expressed as percentage of the 5α-reductase activity present in the “control cells” group. […]

On to `CC(C)(C)NC(=O)[C@H]1CC[C@H]2[C@@H]3CC[C@H]4NC(=O)C=C[C@]4(C)[C@H]3CC[C@]12C` [Finasteride, finasteride], for which the “pmol of 5α-DHT/μg of DNA (individual cultures)” value (2 h preincubation, 24 h incubation, triplicate values, control cells 2.68, 1.91, 1.56) is 0.76 pmol of 5α-DHT/μg of DNA and 0.48 pmol of 5α-DHT/μg of DNA and 0.62 pmol of 5α-DHT/μg of DNA. For the setting “24 h incubation, control cells = 100”, the “% control (5α-reductase activity)” value came to 30%. In addition, the “pmol of 5α-DHT/μg of DNA, Mean” value (24 h incubation, control cells mean 2.05, p<0.05 vs control) was 0.62** pmol of 5α-DHT/μg of DNA. Further, the “inhibition of the 5α-reductase activity” value (p<0.05) is reported as 70%.
